# Measured values taken from patent US20230123334A1, “AMINO LIPID COMPOUND, PREPARATION METHOD THEREFOR, AND APPLICATION THEREOF” (SHENZHEN SHENXIN BIOTECHNOLOGY CO., LTD., priority 2020, published 2023).
# Assays:
# Assay type in all cases: cell-based
# Hela cells [1] = assay: Transfection of Hela cell line, DNA vectors; details: 75 ng plasmid DNA, GFP cells / total cells
# Method: 1. The compound (0.01 mmol) prepared in Example 1 was dissolved in 1 mL of anhydrous ethanol. After ultrasonically dissolved, 10 μL of the resultant amino lipid solution in ethanol was taken and mixed with 5 μL of DOPE solution in ethanol (0.01 m), and then to the obtained mixture was added 35 μL of 0.2M sodium acetate buffer (pH 5.6), and 50 μL of liposome solution was prepared by vortex at a constant rotating speed for 30 s. 4 μL was taken from the 50 μL liposome solution and added to 46 μL of 0.02M sodium acetate buffer (pH 5.6), and the final liposome solution was formed by vortex at a constant rotating speed for 30 s. 5 μL was taken from the final liposome solution and mixed with 75 ng plasmid DNA (psin-EGFP-IRES-Puro, Clontech) dissolved in 5 μL of 0.02 M sodium acetate buffer, and was allowed to stay at room temperature for 30 min to form a lipid/DNA transfection complex.
# 2. 10 μL of the lipid/DNA transfection complex was incubated at room temperature for 30 min, followed by addition of 90 μL of fresh resuspended cells (3-5×10^4 cells) and mixing with a pipette. 100 μL of cells+lipid/DNA complex was transferred to separate wells of a 96-well culture plate immediately, and placed in an incubator containing 5% CO2 at 37° C.
# 3. Hoechst33258 (Invitrogen) was added at a final concentration of 0.2 μg/mL to the cells 20 to 24 hours after initial cell transfection, and cultured in darkness at 37° C. for 15 min. Afterwards, the cells were washed once with a PBS solution, and then added with medium for culture for 20 to 24 h.
# 4. The cells were placed in a high-throughput confocal microscope (Molecular Devices ImageXpress), and four visual fields of the image of the cells were captured for each well, and images at three laser wavelengths were captured for each sample: bright field images of cells (FIG. 2(a) and FIG. 2(b)), Hoechst-staining images showing total nuclei (FIG. 2(c) and FIG. 2(d)) and GFP images showing success in transfection with the plasmid DNA and the expression of GFP (FIG. 2(e) and FIG. 2(f)). MetaXpress software was used to separately count the cells in the Hoechst-staining images and GFP images, and then the number of cells expressing GFP was divided by the total number of nuclei to give the absolute cell transfection efficiency. The absolute transfection efficiency was calculated as follows: […]
# (§1) Cell line: Hela cells (ATCC 35241)
# (§2) Medium: DMEM supplemented with 10% fetal bovine serum (Invitrogen)
# (§3) Screening: cell transfection on 96-well plates
# (§4) Detection (readout): percentage of the number of GFP fluorescent cells relative to the total number of cells (the total number of cells was determined using nucleus dye Hoechst). Lipofectamine2000 (Invitrogen) was used as the positive control, according to the manufacturer's instructions.
# Method: the experimental method was basically the same with Example 4.
# Hela cells [2] = assay: Transfection of Hela cell line, mRNA vectors; details: 50 ng EGFP mRNA per well
# Method: as §1, §2, §3
# as §4, with “Hoechst). A commercially available liposome transfection reagent” for “Hoechst).”, “control group,” for “control,”
# Method: the experimental method was basically the same with Example 4, and the mass of EGFP mRNA for transfection was 50 ng per well.
# HEK293 cells [3] = assay: Preliminary screening as DNA vectors, GFP transfection of HEK293 cells; details: HEK293 cells; lipid/DOPE liposome with 75 ng plasmid DNA (psin-EGFP-IRES-Puro); number of cells expressing GFP divided by total number of nuclei (Hoechst)
# Summary of the method: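 First, amino lipid and DOPE were vortexed in sodium acetate buffer (pH 5.6) to form liposomes. Next, these were held with 75 ng EGFP plasmid at room temperature for 30 min. Finally, HEK293 cells were added, cultured at 37° C., Hoechst-stained, and GFP+/total nuclei scored by imaging.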
# HEK293 cells [4] = assay: Preliminary screening as mRNA vectors, EGFP mRNA transfection of HEK293 cells; details: HEK293 cells, 96-well plates, EGFP mRNA 50 ng per well; percentage of GFP fluorescent cells relative to total number of cells (Hoechst)
# Summary of the method: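 Screening format: EGFP mRNA transfection (50 ng/well) into HEK293 in 10% FBS-supplemented DMEM. Percent green fluorescent cells, normalised to Hoechst nuclear count, gave the value; Lipofectamine2000 was the reference transfectant.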
SMILES,Absolute DNA transfection efficiency in Hela cells (Hela cells [1]) [%],Absolute mRNA transfection efficiency in Hela cells (Hela cells [2]) [%],Absolute DNA transfection efficiency in HEK293 cells (HEK293 cells [3]) [%],Absolute mRNA transfection efficiency in HEK293 cells (HEK293 cells [4]) [%]
CCCCCCCCCCCNc1nc(NCCN(C)C)nc(SCCCCCCCC)n1 [Compound S8N11D1],21.12,21.2,–,–
CCCCCCCCCCCSc1nc(NCCCCCCCCC)nc(NCCN(C)C)n1 [Compound S11N9D1],6.0,6.0,–,–
CCCCCCCCCCCSc1nc(NCCN(C)C)nc(SCCCCCCC)n1 [Compound S7S11D1],5.9,5.9,–,–
CCCCCCCCCCCSc1nc(NCCCCCCCC)nc(NCCN(C)C)n1 [Compound S11N8D1],9.9,9.9,–,–
CCCCCCCCCCCSc1nc(NCCN(C)C)nc(SCCCCCCCC)n1 [Compound S8S11D1],4.59,4.9,–,–
CCCCCCCCCCCCNc1nc(NCCN(C)C)nc(SCCCCCCCCC)n1 [Compound S9N12D1],19.7,19.6,–,–
CCCCCCCCCCCSc1nc(NCCCCCCCC)nc(NCCN2CCOCC2)n1 [Compound S11N8D2],9.3,9.3,–,–
CCCCCCCCCCCNc1nc(NCCN2CCOCC2)nc(SCCCCCCCC)n1 [Compound S8N11D2],12.7,12.7,–,–
CCCCCCCCCCCCNc1nc(NCCN2CCOCC2)nc(SCCCCCCCC)n1 [Compound S8N12D2],19.3,19.3,–,–
CCCCCCCCCCCNc1nc(NCCN(CC)CC)nc(SCCCCCCCCC)n1 [Compound S9N11D7],7.8,7.8,–,–
CCCCCCCCCCCSc1nc(NCCCCCCC)nc(NCCN2CCOCC2)n1 [Compound S11N7D2],5.8,5.8,–,–
CCCCCCCCCCCCNc1nc(NCCN2CCCCC2)nc(SCCCCCCCC)n1 [Compound S8N12D4],3.81,3.8,–,–
CCCCCCCCCCCSc1nc(NCCCCCCCC)nc(NCCN(CC)CC)n1 [Compound S11N8D7],5.7,5.7,–,–
CCCCCCCCCCCSc1nc(NCCCCCCCCC)nc(NCCN(CC)CC)n1 [Compound S11N9D7],0.9,0.9,–,–
CCCCCCCCCNc1nc(NCCN(CC)CC)nc(SCCCCCCCCC)n1 [Compound S9N9D7],24.8,24.8,–,–
CCCCCCCCCNc1nc(NCCN2CCCCC2)nc(SCCCCCCCCC)n1 [Compound S9N9D4],8.9,8.9,–,–
CCCCCCCCCCCCSc1nc(NCCN(CC)CC)nc(SCCCCCCCC)n1 [Compound S8S12D7],4.6,4.6,–,–
CCCCCCCCCCCCNc1nc(NCCN(CC)CC)nc(SCCCCCCCCC)n1 [Compound S9N12D7],6.8,6.8,–,–
CCCCCCCCCCCNc1nc(NCCCCCCCCC)nc(NCCN2CCCC2)n1 [Compound N9N11D3],–,–,0.0,1.8

SMILES,Absolute DNA transfection efficiency in Hela cells (Hela cells [1]) [%],Absolute mRNA transfection efficiency in Hela cells (Hela cells [2]) [%],Absolute DNA transfection efficiency in HEK293 cells (HEK293 cells [3]) [%],Absolute mRNA transfection efficiency in HEK293 cells (HEK293 cells [4]) [%]
CCCCCCCCCCCCCCCCCCSc1nc(NCCN2CCOCC2)nc(SCCCCCCCCCCCC)n1 [Compound S12S18D2],–,–,0.0,0.0
CCCCCCCCCCCCCCCNc1nc(NCCCCCCCC)nc(NCCN2CCOCC2)n1 [Compound N8N15D2],–,–,0.0,0.0
CCCCCCCCCCCCCCCSc1nc(NCCCN(C)C)nc(SCCCCCCCCCC)n1 [Compound S10S15D6],–,–,32.8,24.6
CCCCCCCCCCCCCCCCCCNc1nc(NCCCCCCCCCCCCCCCCCC)nc(NCC2CCN(C)CC2)n1 [Compound N18N18D10],–,–,0.0,0.0
CCCCCCCCCCCCCCCNc1nc(NCCCCCCCC)nc(NCCN(C)C)n1 [Compound N8N15D1],–,–,1.5,0.7
CCCCCCCCCCCCSc1nc(NCCN2CCCC2)nc(SCCCCCCCCCC)n1 [Compound S10S12D3],–,–,8.2,7.6
CCCCCCCCCCCCSc1nc(NCCN2CCN(C)CC2)nc(SCCCCCCCCCCC)n1 [Compound S11S12D5],–,–,2.8,9.2
CCCCCCCCCCCCN(CCCCCCCCCCCC)c1nc(NCCCCCCC)nc(NCCN2CCOCC2)n1 [N7^2N12D2],–,–,1.7,0.9
CCCCCCCCCCCCCCCSc1nc(NCC2CCN(C)CC2)nc(SCCCCCCCCCCCC)n1 [Compound S12S15D10],–,–,9.9,43.1
CCCCCCCCCCCCCCCCCCNc1nc(NCCCCCCC)nc(NCCCN(C)C)n1 [Compound N7N18D6],–,–,0.7,1.1
CCCCCCCCCCCCCCCCCCNc1nc(NCCCCCCCC)nc(NCCN(CC)CC)n1 [Compound N8N18D7],–,–,2.7,9.3
CCCCCCCCCCCCCCCCNc1nc(NCCCCCCCCCCCCCCCC)nc(NCCN2CCOCC2)n1 [Compound N16N16D2],–,–,0.2,0.0
CCCCCCCCCCCCCCCCCCNc1nc(NCCCCCC)nc(NCCN(C)C)n1 [Compound N6N18D1],–,–,1.1,3.9
CCCCCCCCCCCCCCCCCCNc1nc(NCCCCCC)nc(NCC2CCN(C)CC2)n1 [Compound N6N18D10],–,–,0.4,0.1
CCCCCCCCCCCNc1nc(NCCCCCCCCCCC)nc(NCCN(C)C)n1 [Compound N11N11D1],–,–,0.9,4.3
CCCCCCCCCCCCCCCSc1nc(NCCCN2CCOCC2)nc(SCCCCCCCC)n1 [Compound S8S15D8],–,–,23.0,8.0
CCCCCCCCCCCCCCCNc1nc(NCCCCCCCCCCC)nc(NCCN2CCN(C)CC2)n1 [Compound N11N15D5],–,–,0.2,0.8
CCCCCCCCCCCCCCCSc1nc(NCCN(C)C)nc(SCCCCCCCCCCCC)n1 [Compound S12S15D1],–,–,0.8,4.1
